Values quoted from earlier work as cited in patent US6846837B2, “Topical administration of basic antifungal compositions to treat fungal infections of the nails” (priority 2002, dated 2005).
Each block holds one compound with its values, some of them ahead of it.

Experiments:
[1] = not given; remark: listed apart in the source
[2] = forms Ca(OH)2
[3] = test system: onychomycosis; conditions: standard oral treatment

pH of Aqueous Solution, in words (alkalinity): Aqueous solution is slightly alkaline
Structure (SMILES): O=P([O-])([O-])O.[K+].[K+] [Potassium phosphate, dibasic]

Structure (SMILES): CNC [Dimethylamine]
pKa [1]: 10.73

pH of Aqueous Solution, in words (alkalinity): Strongly alkaline
Structure (SMILES): O=B[O-].[Na+] [Sodium metaborate]

pKa [1]: pKa = 10.6
Structure (SMILES): CC(C)CCN [Isopentylamine]

Structure (SMILES): CN(C)C [Trimethylamine]
pKa [1]: 9.81

Structure (SMILES): [O]=[Ca] [Calcium oxide]
solubility in water [2]: Soluble in water, Form Ca(OH)2

Structure (SMILES): CN(C/C=C/C#CC(C)(C)C)Cc1cccc2ccccc12 [terbinafine]
disease-free nails, share of cases [3]: 35-50%
